# In patent publication US7722906B2, “Polyunsaturated fatty acid fractions of Nigella sativa L. seeds” (priority 2004, dated 2010):
# System: writhing induced by parabenzoquinone
# Assay: Analgesic activity, writhing method
# Assay type: in vivo, mice
# Conditions: 5.0 mg/100 g.b.w.
# Experimental: The analgesic activity of the Nigella sativa L. polyunsaturated fatty acid fraction was studied using the writhing method described by Okun et al. (1963). Thirty mature mice of both sexes weighing from 20 to 25 gm were divided into 3 groups of 10 mice each. The first group served as a control and the second group served as a standard (treated with paracetamol in a dose of 5 mg/100 gm body weight). The third group was injected subcutaneously with the Nigella sativa L. polyunsaturated fatty acid fraction. […] […] Animals devoid of writhing in each group were recorded and the analgesic potencies of paracetamol and the Nigella sativa L. polyunsaturated fatty acid fraction were determined as percent protection against writhing.
compound,measurement,setting,value
"CC(=O)Nc1ccc(O)cc1 [Paracetamol, paracetamol]",% Protection,30 minutes,100%
same,% Protection,60 minutes,60%
same,% Protection,90 minutes,40%
same,% Protection,120 minutes,20%
